Experimental data published in patent US6867198B2, “Agents and methods for the treatment of proliferative diseases” (Eli Lilly and Company, priority 1999, dated 2005).

Target: T1, cyclin D1-cdk4 (Homo sapiens, UniProt P11802)
Experiment: Assay of Cyclin D1-cdk4 Kinase Activity with the ING Peptide as Substrate
Format: biochemical
Details: ING peptide 200 uM as substrate, 300 uM ATP, 60 minutes at room temperature
Procedure: Assay of Cyclin D1-cdk4 Kinase Activity with the ING Peptide as Substrate
The cyclin D1-cdk4 kinase activity of a compound was assayed by preparing a 100 ul reaction at the following concentrations: 35 mM Hepes pH 7.0, 10 mM MgCl2, 300 uM ATP, 200 uM ING peptide, 1.0 uCi of γ-^33P-ATP, 4.34 ug of cyclin D-cdk4 enzyme, 4% DMSO, and various concentrations of inhibitor. The reaction was incubated at room temperature (about 74° F.) for 60 minutes, and then terminated by the addition of 100 ul of 10% phosphoric acid. Next, the reaction was filtered through a Millipore Multiscreen-PH Plate—Catalog number MAPH NOB 10, and the plate was washed 2 times with 320 ul each of 0.5% phosphoric acid, followed by the addition of 100 ul of scintillation fluid and quantitation on a Packard Instruments, Top Count, scintillation counter.

T1 sequence (P11802 whole entry): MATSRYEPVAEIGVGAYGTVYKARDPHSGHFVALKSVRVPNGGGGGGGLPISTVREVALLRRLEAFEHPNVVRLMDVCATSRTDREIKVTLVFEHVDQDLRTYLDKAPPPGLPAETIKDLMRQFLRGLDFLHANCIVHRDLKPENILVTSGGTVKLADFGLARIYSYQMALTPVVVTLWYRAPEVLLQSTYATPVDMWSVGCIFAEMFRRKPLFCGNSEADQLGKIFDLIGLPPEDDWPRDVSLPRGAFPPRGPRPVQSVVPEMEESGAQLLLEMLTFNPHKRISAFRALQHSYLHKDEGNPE
T1 sequence (P24385 whole entry partner): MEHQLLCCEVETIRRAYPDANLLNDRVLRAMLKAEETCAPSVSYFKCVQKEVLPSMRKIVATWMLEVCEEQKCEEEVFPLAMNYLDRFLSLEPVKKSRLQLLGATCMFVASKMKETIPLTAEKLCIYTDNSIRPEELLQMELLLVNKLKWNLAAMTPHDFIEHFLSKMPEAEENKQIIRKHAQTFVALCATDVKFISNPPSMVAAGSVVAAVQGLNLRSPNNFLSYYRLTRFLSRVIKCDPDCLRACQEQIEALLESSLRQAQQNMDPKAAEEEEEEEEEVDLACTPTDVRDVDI

Row | Structure (SMILES) | IC50 [nM]
1 | CC1(C)CCn2c3c1cc(F)cc3c1c3c(c4c5ccccc5[nH]c4c12)C(=O)NC3=O [drawing 218] | 466
2 | CC1(C)Cc2cccc3c4c5c(c6c7ccc(CN)cc7[nH]c6c4n(c23)C1)C(=O)NC5=O [drawing 219] | 173
3 | O=C1NC(=O)c2c1c1c3ccc(CN4CCCC4)cc3[nH]c1c1c2c2cccc3c2n1CCC3 [drawing 220] | 51.3
4 | CC(C)(C)OC[C@H]1Cn2c3c(cccc3c3c4c(c5c6ccccc6[nH]c5c32)C(=O)NC4=O)CN1 [drawing 213] | 116
5 | CN1Cc2cccc3c4c5c(c6c7ccccc7[nH]c6c4n(c23)C1)C(=O)NC5=O [drawing 221] | 36.8
6 | CC1Cn2c3c(cccc3c3c4c(c5c6ccccc6[nH]c5c32)C(=O)NC4=O)CN1C(=O)[C@H](C)N (stereo partly drawn) [drawing 217] | 269

Results, then the compound that gave them:

Row | IC50 [nM] | Structure (SMILES)
7 | 786 | O=C1NC(=O)C(c2cn3c4c(cccc24)CCC3)=C1c1c[nH]c2ccccc12 [drawing 222]
8 | 793 | CC1(C)Cc2cccc3c(C4=C(c5c[nH]c6cc(CN)ccc56)C(=O)NC4=O)cn(c23)C1
9 | 105 | O=C1NC(=O)c2c1c1c3ccccc3[nH]c1c1c2c2cccc3c2n1CCC3 [drawing 212]
10 | 78.7 | O=C1NC(=O)c2c1c1c3ccccc3[nH]c1c1c2c2cccc3c2n1C(CO)CC3 (stereo not drawn)
11 | 455 | CN1Cc2cccc3c(C4=C(c5c[nH]c6ccccc56)C(=O)NC4=O)cn(c23)C1
12 | 1560 | CC1(C)CCn2cc(C3=C(c4c[nH]c5ccccc45)C(=O)NC3=O)c3cc(F)cc1c32
13 | 127 | O=C1NC(=O)c2c1c1c3ccccc3[nH]c1c1c2c2cccc3c2n1CC(CO)C3 (stereo not drawn)
14 | 64.5 | O=C1NC(=O)c2c1c1c3ccccc3[nH]c1c1c2c2cccc3c2n1CCC3CO (stereo not drawn)
15 | 151 | O=C1NC(=O)C(c2cn3c4c(cccc24)CCC3CO)=C1c1c[nH]c2ccccc12 (stereo not drawn)
16 | 367 | O=C1NC(=O)C(c2cn3c4c(cccc24)CC(CO)C3)=C1c1c[nH]c2ccccc12 (stereo not drawn) [drawing 223]

Target: T1, cyclin D1-cdk4
Experiment: Assay of Cyclin D1-cdk4 Kinase Activity with the Rb21 Protein as Substrate
Format: biochemical
Details: Rb21 protein 5 ug as substrate, 30 uM ATP, 60 minutes at room temperature
Procedure: Assay of Cyclin D1-cdk4 Kinase Activity with the Rb21 Protein as Substrate
The cyclin D1-cdk4 kinase activity of a compound was assayed by preparing a 100 ul reaction at the following concentrations: 20 mM Hepes pH 7.0, 10 mM MgCl2, 30 uM ATP, 5 ug of Rb21 protein (Santa Cruz Biotech, Catalog #sc-4112), 1.0 uCi of γ-^33P-ATP, 1.09 ug of cyclin D-cdk4 enzyme, 4% DMSO, and various concentrations of inhibitor. The reaction was incubated at room temperature (about 74° F.) for 60 minutes, and then terminated by the addition of 100 ul of 25% trichloroacetic acid. Next, the reaction was filtered through a Millipore Multiscreen-FC Plate—Catalog number MAFC NOB 10, and the plate was washed 2 times with 320 ul each of 10% trichloroacetic acid, followed by the addition of 100 ul of scintillation fluid and quantitation on a Packard Instruments, Top Count, scintillation counter.

Row | Structure (SMILES) | IC50 [nM]
17 | CC(C)(C)OC[C@H]1Cn2c3c(cccc3c3c4c(c5c6ccccc6[nH]c5c32)C(=O)NC4=O)CN1 [drawing 229] | 66.6
18 | CC1(C)Cc2cccc3c4c5c(c6c7ccc(CN)cc7[nH]c6c4n(c23)C1)C(=O)NC5=O [drawing 235] | 30.1
19 | CC1Cn2c3c(cccc3c3c4c(c5c6ccccc6[nH]c5c32)C(=O)NC4=O)CN1C(=O)[C@H](C)N (stereo partly drawn) [drawing 233] | 180
20 | O=C1NC(=O)c2c1c1c3ccc(CN4CCCC4)cc3[nH]c1c1c2c2cccc3c2n1CCC3 [drawing 236] | 11.1
21 | CC1(C)CCn2c3c1cc(F)cc3c1c3c(c4c5ccccc5[nH]c4c12)C(=O)NC3=O [drawing 234] | 202

Other lines, results leading:

Row | IC50 [nM] | Structure (SMILES)
22 | 65 | O=C1NC(=O)c2c1c1c3ccccc3[nH]c1c1c2c2cccc3c2n1CCC3 [drawing 228]
23 | 811 | O=C1NC(=O)C(c2cn3c4c(cccc24)CC(CO)C3)=C1c1c[nH]c2ccccc12 (stereo not drawn) [drawing 239]
24 | 15.5 | CN1Cc2cccc3c4c5c(c6c7ccccc7[nH]c6c4n(c23)C1)C(=O)NC5=O [drawing 237]
25 | 709 | O=C1NC(=O)C(c2cn3c4c(cccc24)CCC3)=C1c1c[nH]c2ccccc12 [drawing 238]

Tested on: HCT-116 or NCI H460 cells
Experiment: Cell Growth Inhibition Assay (MTT)
Format: cell-based
Details: 72 h of drug exposure
Procedure: Cell Growth Inhibition Assay
The MTT assay was used to measure growth inhibitory activity (Schultz, R. M., et. al. Oncology Res. 5, 223-228, 1993). […] Basically, 1000 HCT-116 or NCI H460 cells were added per well to 96-well flat-bottom plates in 100-ul RPMI 1640 medium containing 10% dialyzed fetal bovine serum. The plates were incubated for 24 h prior to addition of test compounds. A stock solution (10 mM) was prepared in DMSO and serially diluted in medium. Compound dilutions were added to triplicate wells, and the plates were incubated for 72 hours. […].

Row | Structure (SMILES) | cell growth inhibition
26 | O=C1NC(=O)c2c1c1c3ccccc3[nH]c1c1c2c2cccc3c2n1CCC3 [Example 52, 11H, 12H, 14H-pyrrolo[3,4-c]quinolino[8′,8a′,1′:3,2,1]-pyrrolo[2,3-a]carbazole-5,7-dione] | inhibit cell growth

Tested on: HCT-116 and NCI H460 cell lines
Experiment: Cell Cycle Analysis Using Flow Cytometry
Format: cell-based
Details: compound at 1×IC50 and 3×IC50, 24 hours, DNA histogram analysis
Procedure: Cell Cycle Analysis Using Flow Cytometry
The HCT-116 and NCI H460 cell lines were seeded in 75 cm^2 flasks at 5×10^5 cells/25 ml RPMI 1640 medium containing 10% dialyzed fetal bovine serum. They were incubated for 24 hours. Compound is then added at 1×IC50 and 3×IC50 (determined from above section “growth inhibition studies”) and incubated for an additional 24 hours. The cells were subsequently harvested and the protocol (Robinson, J. P. and Darzynkiewicz, Z. Current Protocols in Cytometry. 1997) for staining was followed. DNA histogram analysis was performed using ModFit LT (Verity House).

Row | Structure (SMILES) | cell cycle arrest
27 | O=C1NC(=O)c2c1c1c3ccccc3[nH]c1c1c2c2cccc3c2n1CCC3 [Example 52, 11H, 12H, 14H-pyrrolo[3,4-c]quinolino[8′,8a′,1′:3,2,1]-pyrrolo[2,3-a]carbazole-5,7-dione] | arrest cells in the G1 phase of the cell cycle

Tested on: Ser-780 pRb phosphorylation in HCT116 cells
Experiment: Inhibition of Rb Phosphorylation Assay
Format: cell-based, Human
Details: compound at 1×, 2× and 3×IC50, 24 hours, immunoblot
Procedure: Inhibition of Rb Phosphorylation Assay
Human HCT116 colon carcinoma cell line was purchased from American Tissue Culture Collection (Rockville, Md.) and maintained as monolayer in RPMI-1640 with L-Glutamine and 25 mM HEPES supplemented with 10% fetal bovine serum in a 37° C. incubator with a 10% CO2 atmosphere. The detection of mycoplasm in cultured cells was performed using Mycoplasma Rapid Detection System (TaKaRa Shuzo Co. Ltd., Shiga, Japan) every 2-3 months and the cells were found consistently negative throughout these experiments. The Rb phosphorylation assay was done be plating 4×10^5 cells/well in 6-well plates. […] At the end of the incubation period the mediumj was removed and the cells were washed twice with cold PBS containing 1 mM sodium orthovanadate (Na3VO4). […] Protein concentration was determined by the Bio-Rad DC protein assay (Bio-Rad, Hercules, Calif.). […] Proteins were detected by capturing image of the membrane using Quantity One Software on a Fluor-S multi-Imager (Bio-Rad, Hercules, Calif.) in a linear range. Specific bands were quantified using Quantity One Software. […] Results are expressed as a percentage inhibition of Ser-780 pRb phosphorylation in drug treated cells versus control DMSO treated cells.

Row | Structure (SMILES) | inhibition of Ser-780 pRb phosphorylation
28 | O=C1NC(=O)c2c1c1c3ccccc3[nH]c1c1c2c2cccc3c2n1CCC3 [Example 52, 11H, 12H, 14H-pyrrolo[3,4-c]quinolino[8′,8a′,1′:3,2,1]-pyrrolo[2,3-a]carbazole-5,7-dione] | inhibit Rb (retinoblastoma protein) phosphorylation

Tested on: protein kinase C
Experiment: not given
Details: cited from earlier work

Row | Structure (SMILES) | concentration inhibiting protein kinase C [μM/L]
29 | CN1CC[C@H](c2c(O)cc(O)c3c(=O)cc(-c4ccccc4Cl)oc23)[C@H](O)C1 [Flavopiridol] | ≥ 10

Tested on: protein kinase A
Experiment: not given
Details: cited from earlier work

Row | Structure (SMILES) | concentration inhibiting protein kinase A [μM/L]
30 | CN1CC[C@H](c2c(O)cc(O)c3c(=O)cc(-c4ccccc4Cl)oc23)[C@H](O)C1 [Flavopiridol] | ≥ 10
